# Reference: the NIST ThermoML archive (doi:10.1016/j.fluid.2012.10.002)
# Several values for one entry are separate records, joined by “and”; a condition that tells them apart may be missing. Equal values may be shown once. ± gives the expanded uncertainty stated by the source.
# Test: xn = mol fraction of the nth substance listed
# Conditions: Gas, Frequency=0.05 MHz, Linear variable-path acoustic interferometer
smiles,measurement,setting,value
FC(F)(F)C(F)(F)C(F)(F)F [octafluoropropane] + FC(F)(F)C(F)(F)F,speed of sound,"258.87 K, 181 kPa, x2 = 0",104.06 ± 0.47 m/s
same,speed of sound,"261.04 K, 214 kPa, x2 = 0.146",106.6 ± 0.47 m/s
same,speed of sound,"261.17 K, 183 kPa, x2 = 0",104.66 ± 0.47 m/s
same,speed of sound,"263.69 K, 217 kPa, x2 = 0.146",107.31 ± 0.47 m/s
same,speed of sound,"266.22 K, 219 kPa, x2 = 0.146",107.96 ± 0.47 m/s
same,speed of sound,"268.73 K, 189 kPa, x2 = 0",106.57 ± 0.47 m/s
same,speed of sound,"268.76 K, 222 kPa, x2 = 0.146",108.61 ± 0.47 m/s
same,speed of sound,"270.28 K, 190 kPa, x2 = 0",106.94 ± 0.47 m/s
same,speed of sound,"271.52 K, 214 kPa, x2 = 0.11",108.77 ± 0.47 m/s
same,speed of sound,"271.54 K, 224 kPa, x2 = 0.146",109.31 ± 0.47 m/s
same,speed of sound,"273.74 K, 193 kPa, x2 = 0",107.79 ± 0.47 m/s
same,speed of sound,"273.82 K, 227 kPa, x2 = 0.146",109.89 ± 0.47 m/s
same,speed of sound,"273.86 K, 202 kPa, x2 = 0.048",108.5 ± 0.47 m/s
same,speed of sound,"273.88 K, 216 kPa, x2 = 0.11",109.36 ± 0.47 m/s
same,speed of sound,"273.9 K, 216 kPa, x2 = 0.11",109.35 ± 0.47 m/s
same,speed of sound,"276.23 K, 195 kPa, x2 = 0",108.4 ± 0.73 m/s
same,speed of sound,"276.3 K, 219 kPa, x2 = 0.11",109.94 ± 0.47 m/s
same,speed of sound,"276.35 K, 229 kPa, x2 = 0.146",110.52 ± 0.47 m/s
same,speed of sound,"278.61 K, 206 kPa, x2 = 0.048",109.65 ± 0.47 m/s
same,speed of sound,"278.75 K, 197 kPa, x2 = 0",109 ± 0.73 m/s
same,speed of sound,"279.06 K, 231 kPa, x2 = 0.146",111.21 ± 0.47 m/s
same,speed of sound,"281.01 K, 208 kPa, x2 = 0.048",110.21 ± 0.47 m/s
same,speed of sound,"281.09 K, 223 kPa, x2 = 0.11",111.13 ± 0.47 m/s
same,speed of sound,"281.24 K, 199 kPa, x2 = 0",109.59 ± 0.57 m/s
same,speed of sound,"281.35 K, 233 kPa, x2 = 0.146",111.76 ± 0.47 m/s
same,speed of sound,"281.94 K, 224 kPa, x2 = 0.11",111.33 ± 0.47 m/s
same,speed of sound,"283.42 K, 225 kPa, x2 = 0.11",111.69 ± 0.47 m/s
same,speed of sound,"283.48 K, 210 kPa, x2 = 0.048",110.83 ± 0.47 m/s
same,speed of sound,"283.81 K, 201 kPa, x2 = 0",110.19 ± 0.57 m/s
same,speed of sound,"284.05 K, 236 kPa, x2 = 0.146",112.44 ± 0.48 m/s
same,speed of sound,"285.85 K, 212 kPa, x2 = 0.048",111.38 ± 0.48 m/s
same,speed of sound,"285.87 K, 212 kPa, x2 = 0.048",111.39 ± 0.48 m/s
same,speed of sound,"285.92 K, 227 kPa, x2 = 0.11",112.29 ± 0.48 m/s
same,speed of sound,"286.31 K, 203 kPa, x2 = 0",110.78 ± 0.48 m/s
same,speed of sound,"286.39 K, 238 kPa, x2 = 0.146",112.99 ± 0.48 m/s
same,speed of sound,"288.79 K, 205 kPa, x2 = 0",111.35 ± 2 m/s
same,speed of sound,"288.96 K, 241 kPa, x2 = 0.146",113.61 ± 0.48 m/s
same,speed of sound,"290.79 K, 231 kPa, x2 = 0.11",113.46 ± 0.48 m/s
same,speed of sound,"291.2 K, 207 kPa, x2 = 0",111.92 ± 0.5 m/s
same,speed of sound,"291.22 K, 217 kPa, x2 = 0.048",112.64 ± 0.48 m/s
same,speed of sound,"291.37 K, 243 kPa, x2 = 0.146",114.18 ± 0.48 m/s
same,speed of sound,"293.19 K, 218 kPa, x2 = 0.048",113.11 ± 0.48 m/s
same,speed of sound,"293.86 K, 245 kPa, x2 = 0.146",114.77 ± 0.48 m/s
same,speed of sound,"294.01 K, 245 kPa, x2 = 0.146",114.81 ± 0.48 m/s
same,speed of sound,"294.82 K, 246 kPa, x2 = 0.146",115.01 ± 0.48 m/s
same,speed of sound,"294.96 K, 235 kPa, x2 = 0.11",114.43 ± 0.48 m/s
same,speed of sound,"295.16 K, 235 kPa, x2 = 0.11",114.49 ± 0.48 m/s
same,speed of sound,"295.22 K, 220 kPa, x2 = 0.048",113.57 ± 0.48 m/s
same,speed of sound,"295.26 K, 210 kPa, x2 = 0",112.82 ± 0.51 m/s
same,speed of sound,"295.26 K, 220 kPa, x2 = 0.048",113.58 ± 0.48 m/s
same,speed of sound,"295.28 K, 220 kPa, x2 = 0.048",113.59 ± 0.48 m/s
same,speed of sound,"296.26 K, 247 kPa, x2 = 0.146",115.34 ± 0.48 m/s
same,speed of sound,"297.13 K, 248 kPa, x2 = 0.146",115.54 ± 0.48 m/s and 115.55 ± 0.48 m/s
same,speed of sound,"298.69 K, 250 kPa, x2 = 0.146",115.9 ± 0.48 m/s
same,speed of sound,"300.46 K, 224 kPa, x2 = 0.048",114.77 ± 0.48 m/s
same,speed of sound,"301.15 K, 215 kPa, x2 = 0",114.22 ± 0.48 m/s
same,speed of sound,"301.17 K, 252 kPa, x2 = 0.146",116.47 ± 0.48 m/s
same,speed of sound,"302.82 K, 226 kPa, x2 = 0.048",115.32 ± 0.48 m/s
same,speed of sound,"302.91 K, 242 kPa, x2 = 0.11",116.26 ± 0.48 m/s
same,speed of sound,"303.66 K, 254 kPa, x2 = 0.146",117.06 ± 0.48 m/s
same,speed of sound,"303.67 K, 216 kPa, x2 = 0",114.79 ± 0.48 m/s
same,speed of sound,"303.69 K, 217 kPa, x2 = 0",114.78 ± 0.48 m/s
same,speed of sound,"306.23 K, 219 kPa, x2 = 0",115.37 ± 0.54 m/s
same,speed of sound,"307.6 K, 230 kPa, x2 = 0.048",116.4 ± 0.48 m/s
same,speed of sound,"308.64 K, 259 kPa, x2 = 0.146",118.2 ± 0.48 m/s
same,speed of sound,"311.15 K, 261 kPa, x2 = 0.146",118.77 ± 0.49 m/s
same,speed of sound,"311.27 K, 223 kPa, x2 = 0",116.48 ± 0.48 m/s
same,speed of sound,"312.3 K, 234 kPa, x2 = 0.048",117.45 ± 0.48 m/s
same,speed of sound,"312.47 K, 251 kPa, x2 = 0.11",118.45 ± 0.48 m/s
same,speed of sound,"313.65 K, 264 kPa, x2 = 0.146",119.34 ± 0.48 m/s
same,speed of sound,"314.99 K, 253 kPa, x2 = 0.11",119.04 ± 0.48 m/s
same,speed of sound,"315.91 K, 237 kPa, x2 = 0.048",118.26 ± 0.48 m/s
same,speed of sound,"316.18 K, 266 kPa, x2 = 0.146",119.91 ± 0.48 m/s
same,speed of sound,"316.26 K, 226 kPa, x2 = 0",117.58 ± 0.48 m/s
same,speed of sound,"317.39 K, 255 kPa, x2 = 0.11",119.56 ± 0.48 m/s
same,speed of sound,"318.68 K, 268 kPa, x2 = 0.146",120.47 ± 0.48 m/s
same,speed of sound,"319.74 K, 257 kPa, x2 = 0.11",120.07 ± 0.49 m/s
same,speed of sound,"321.23 K, 230 kPa, x2 = 0",118.64 ± 0.48 m/s
same,speed of sound,"322.15 K, 259 kPa, x2 = 0.11",120.6 ± 0.48 m/s
same,speed of sound,"323.51 K, 273 kPa, x2 = 0.146",121.55 ± 0.48 m/s
same,speed of sound,"323.74 K, 232 kPa, x2 = 0",119.18 ± 0.48 m/s
FC(F)(F)C(F)(F)F [hexafluoroethane] + FC(F)(F)C(F)(F)C(F)(F)F,speed of sound,"261.1 K, 183 kPa, x1 = 1",127.95 ± 0.49 m/s
same,speed of sound,"263.74 K, 185 kPa, x1 = 1",128.64 ± 0.49 m/s
same,speed of sound,"266.3 K, 186 kPa, x1 = 1",129.3 ± 0.49 m/s
same,speed of sound,"268.82 K, 188 kPa, x1 = 1",129.95 ± 0.5 m/s
same,speed of sound,"270.22 K, 189 kPa, x1 = 1",130.3 ± 0.5 m/s
same,speed of sound,"271.26 K, 190 kPa, x1 = 1",130.57 ± 0.49 m/s
same,speed of sound,"273.89 K, 192 kPa, x1 = 1",131.26 ± 0.49 m/s
same,speed of sound,"276.33 K, 194 kPa, x1 = 1",131.87 ± 0.49 m/s
same,speed of sound,"278.84 K, 195 kPa, x1 = 1",132.51 ± 0.49 m/s
same,speed of sound,"281.3 K, 197 kPa, x1 = 1",133.11 ± 0.49 m/s
same,speed of sound,"281.31 K, 197 kPa, x1 = 1",133.1 ± 0.49 m/s
same,speed of sound,"283.84 K, 199 kPa, x1 = 1",133.77 ± 0.49 m/s
same,speed of sound,"286.31 K, 201 kPa, x1 = 1",134.35 ± 0.49 m/s
same,speed of sound,"288.82 K, 203 kPa, x1 = 1",135 ± 0.49 m/s
same,speed of sound,"293.64 K, 206 kPa, x1 = 1",136.18 ± 0.51 m/s
same,speed of sound,"296.91 K, 208 kPa, x1 = 1",136.93 ± 0.52 m/s
same,speed of sound,"301.03 K, 212 kPa, x1 = 1",137.94 ± 0.5 m/s
same,speed of sound,"303.69 K, 213 kPa, x1 = 1",138.56 ± 0.5 m/s
same,speed of sound,"306.24 K, 215 kPa, x1 = 1",139.22 ± 0.52 m/s
same,speed of sound,"308.82 K, 217 kPa, x1 = 1",139.82 ± 0.52 m/s
same,speed of sound,"311.28 K, 219 kPa, x1 = 1",140.41 ± 0.51 m/s
same,speed of sound,"313.79 K, 221 kPa, x1 = 1",141 ± 0.51 m/s
same,speed of sound,"318.78 K, 224 kPa, x1 = 1",142.17 ± 0.5 m/s
same,speed of sound,"323.78 K, 228 kPa, x1 = 1",143.37 ± 0.5 m/s
